Measured values published in patent US20130209543A1, “ENHANCED TREATMENT REGIMENS USING MTOR INHIBITORS” (Intellikine LLC, priority 2011, published 2013).

Test: Phase I clinical trial: safety, related treatment-emergent adverse events, patients n (%)
Format: in vivo
[1] = Total QW Dosing, N = 15, listed as Cpd A
[2] = all 3 intermittent dosing regimens, n=35

Experimental: Safety, maximum tolerated dose (MTD), pharmacokinetics (PK) and preliminary antitumor activity were evaluated.
Pharmacodynamic (PD) endpoints were evaluated in surrogate (peripheral blood cells [PBCs], skin) and tumor tissues for the phosphorylation of TORC1-dependent markers (4EBP1/S6), and TORC2-dependent markers (AKT/PRAS40).

Structure (SMILES): CC(C)n1nc(-c2ccc3oc(N)nc3c2)c2c(N)ncnc21 [compound A]
- Gastritis (Total QDx3d QW, N = 14): 0 (0%)
- Gravitational oedema (Total QDx3d QW, N = 14): 0 (0%)
- Hypocalcaemia (Total QDx3d QW, N = 14): 0 (0%)
- Insomnia (Total QDx3d QW, N = 14): 0 (0%)
- Malaise (Total QDx3d QW, N = 14): 0 (0%)
- Nausea (Total QDx3d QW, N = 14): 0 (0%)
- Oral discomfort (Total QDx3d QW, N = 14): 0 (0%)
- Orthostatic hypotension (Total QDx3d QW, N = 14): 0 (0%)
- Panniculitis (Total QDx3d QW, N = 14): 0 (0%)
- Polyuria (Total QDx3d QW, N = 14): 0 (0%)
- Rash (Total QDx3d QW, N = 14): 0 (0%)
- Skin discolouration (Total QDx3d QW, N = 14): 0 (0%)
- Skin exfoliation (Total QDx3d QW, N = 14): 0 (0%)
- Urine tract infection (Total QDx3d QW, N = 14): 0 (0%)
- Vomiting (Total QDx3d QW, N = 14): 0 (0%)
- Weakness (Total QDx3d QW, N = 14): 0 (0%)
- Weight decreased (Total QDx3d QW, N = 14): 0 (0%)
- Catheter site inflammation (Total QDx5d QW, N = 6): 0 (0%)
- Catheter site pain (Total QDx5d QW, N = 6): 0 (0%)
- Coagulopathy (Total QDx5d QW, N = 6): 0 (0%)
- Confusional state (Total QDx5d QW, N = 6): 0 (0%)
- Cough (Total QDx5d QW, N = 6): 0 (0%)
- Diarrhea (Total QDx5d QW, N = 6): 0 (0%)
- Dizziness (Total QDx5d QW, N = 6): 0 (0%)
- Dyspnoea exertional (Total QDx5d QW, N = 6): 0 (0%)
- Eye infection (Total QDx5d QW, N = 6): 0 (0%)
- Fatigue (Total QDx5d QW, N = 6): 0 (0%)
- Gastritis (Total QDx5d QW, N = 6): 0 (0%)
- Gravitational oedema (Total QDx5d QW, N = 6): 0 (0%)
- Headache (Total QDx5d QW, N = 6): 0 (0%)
- Hyperbilirubinaemia (Total QDx5d QW, N = 6): 0 (0%)
- Hypertransaminasaemia (Total QDx5d QW, N = 6): 0 (0%)
- Hypertriglyceridaemia (Total QDx5d QW, N = 6): 0 (0%)
- Hypocalcaemia (Total QDx5d QW, N = 6): 0 (0%)
- Hypomagnesaemia (Total QDx5d QW, N = 6): 0 (0%)
- Hypotension (Total QDx5d QW, N = 6): 0 (0%)
- Insomnia (Total QDx5d QW, N = 6): 0 (0%)
- Low fever (Total QDx5d QW, N = 6): 0 (0%)
- Malaise (Total QDx5d QW, N = 6): 0 (0%)
- Nausea (second line) (Total QDx5d QW, N = 6): 1 (17%)
- Oral discomfort (Total QDx5d QW, N = 6): 0 (0%)
- Orthostatic hypotension (Total QDx5d QW, N = 6): 0 (0%)
- Palmar-plantar erythrodysaesthesia syndrome (Total QDx5d QW, N = 6): 0 (0%)
- Panniculitis (Total QDx5d QW, N = 6): 0 (0%)
- Platelet count decreased (Total QDx5d QW, N = 6): 0 (0%)
- Polyuria (Total QDx5d QW, N = 6): 0 (0%)
- Pyrexia (Total QDx5d QW, N = 6): 0 (0%)
- Rash (Total QDx5d QW, N = 6): 0 (0%)
- Rash macular (Total QDx5d QW, N = 6): 0 (0%)
- Skin discolouration (Total QDx5d QW, N = 6): 0 (0%)
- Skin exfoliation (Total QDx5d QW, N = 6): 0 (0%)
- Urinary tract infection (Total QDx5d QW, N = 6): 0 (0%)
- Weakness (Total QDx5d QW, N = 6): 0 (0%)
- Weight decreased (Total QDx5d QW, N = 6): 0 (0%)
- Aspartate aminotransferase increased (Total QW Dosing, N = 15): 2 (13%)
- Asthenia (Total QW Dosing, N = 15): 2 (13%)
- Catheter site inflammation (Total QW Dosing, N = 15): 0 (0%)
- Catheter site pain (Total QW Dosing, N = 15): 0 (0%)
- Coagulopathy (Total QW Dosing, N = 15): 0 (0%)
- Confusional state (Total QW Dosing, N = 15): 0 (0%)
- Cough (Total QW Dosing, N = 15): 0 (0%)
- Diarrhoea (Total QW Dosing, N = 15): 3 (20%)
- Dizziness (Total QW Dosing, N = 15): 0 (0%)
- Dyspnoea exertional (Total QW Dosing, N = 15): 0 (0%)
- Eye infection (Total QW Dosing, N = 15): 0 (0%)
- Fatigue (Total QW Dosing, N = 15): 0 (0%)
- Gastritis (Total QW Dosing, N = 15): 0 (0%)
- Gravitational oedema (Total QW Dosing, N = 15): 0 (0%)
- HYPERGLYCEMIA (Total QW Dosing, N = 15): 2 (13%)
- Headache (Total QW Dosing, N = 15): 0 (0%)
- Hyperbilirubinaemia (Total QW Dosing, N = 15): 0 (0%)
- Hyperglycaemia (Total QW Dosing, N = 15): 5 (33%)
- Hypertransaminasaemia (Total QW Dosing, N = 15): 0 (0%)
- Hypertriglyceridaemia (Total QW Dosing, N = 15): 0 (0%)
- Hypocalcaemia (Total QW Dosing, N = 15): 0 (0%)
- Hypomagnesaemia (Total QW Dosing, N = 15): 0 (0%)
- Hypotension (Total QW Dosing, N = 15): 0 (0%)
- Insomnia (Total QW Dosing, N = 15): 0 (0%)
- Low fever (Total QW Dosing, N = 15): 0 (0%)
- Mucosal inflammation (Total QW Dosing, N = 15): 3 (20%)
- Nausea (Total QW Dosing, N = 15): 0 (0%)
- Orthostatic hypotension (Total QW Dosing, N = 15): 0 (0%)
- Palmar-plantar erythrodysaesthesia syndrome (Total QW Dosing, N = 15): 0 (0%)
- Panniculitis (Total QW Dosing, N = 15): 0 (0%)
- Patients Reporting at Least One Related TEAE (Total QW Dosing, N = 15): 13 (87%)
- Platelet count decreased (Total QW Dosing, N = 15): 0 (0%)
- Polyuria (Total QW Dosing, N = 15): 0 (0%)
- Pyrexia (Total QW Dosing, N = 15): 0 (0%)
- Rash macular (Total QW Dosing, N = 15): 0 (0%)
- Skin discolouration (Total QW Dosing, N = 15): 0 (0%)
- Skin exfoliation (Total QW Dosing, N = 15): 0 (0%)
- Urinary tract infection (Total QW Dosing, N = 15): 0 (0%)
- Urine tract infection (Total QW Dosing, N = 15): 0 (0%)
- Vomiting (Total QW Dosing, N = 15): 0 (0%)
- Weight decreased (Total QW Dosing, N = 15): 0 (0%)
- Nausea [1]: 10 (67%)
- Vomiting [1]: 5 (33%)
- Catheter site inflammation (Total, N = 60): 1 (2%)
- Catheter site pain (Total, N = 60): 1 (2%)
- Coagulopathy (Total, N = 60): 1 (2%)
- Confusional state (Total, N = 60): 1 (2%)
- Cough (Total, N = 60): 1 (2%)
- Diarrhea (Total, N = 60): 1 (2%)
- Dizziness (Total, N = 60): 1 (2%)
- Dyspnoea exertional (Total, N = 60): 1 (2%)
- Eye infection (Total, N = 60): 1 (2%)
- Fatigue (Total, N = 60): 1 (2%)
- Gastritis (Total, N = 60): 1 (2%)
- Gravitational oedema (Total, N = 60): 1 (2%)
- Headache (Total, N = 60): 1 (2%)
- Hyperbilirubinaemia (Total, N = 60): 1 (2%)
- Hypertransaminasaemia (Total, N = 60): 1 (2%)
- Hypertriglyceridaemia (Total, N = 60): 1 (2%)
- Hypocalcaemia (Total, N = 60): 1 (2%)
- Hypomagnesaemia (Total, N = 60): 1 (2%)
- Hypotension (Total, N = 60): 1 (2%)
- Insomnia (Total, N = 60): 1 (2%)
- Low fever (Total, N = 60): 1 (2%)
- Malaise (Total, N = 60): 1 (2%)
- Nausea (Total, N = 60): 1 (2%)
- Oral discomfort (Total, N = 60): 1 (2%)
- Orthostatic hypotension (Total, N = 60): 1 (2%)
- Palmar-plantar erythrodysaesthesia syndrome (Total, N = 60): 1 (2%)
- Panniculitis (Total, N = 60): 1 (2%)
- Platelet count decreased (Total, N = 60): 1 (2%)
- Polyuria (Total, N = 60): 1 (2%)
- Pyrexia (Total, N = 60): 1 (2%)
- Rash (Total, N = 60): 1 (2%)
- Rash macular (Total, N = 60): 1 (2%)
- Skin discolouration (Total, N = 60): 1 (2%)
- Skin exfoliation (Total, N = 60): 1 (2%)
- Urinary tract infection (Total, N = 60): 1 (2%)
- Urine tract infection (Total, N = 60): 1 (2%)
- Vomiting (Total, N = 60): 1 (2%)
- Weakness (Total, N = 60): 1 (2%)
- Weight decreased (Total, N = 60): 1 (2%)
- AE possibly related: asthenia [2]: 23%
- AE possibly related: diarrhea [2]: 20%
- AE possibly related: hyperglycemia [2]: 37%
- AE possibly related: mucosal inflammation [2]: 29%
- AE possibly related: nausea [2]: 51%
- AE possibly related: rash [2]: 23%
- AE possibly related: vomiting [2]: 26%
- reversibility of adverse events (all AEs reported): reversible
- grade of the majority of AEs possibly related (any regimen): Grade 1 or 2
